# According to patent US20140051631A1, “PHARMACEUTICAL COMPOSITION COMPRISING TPO OR AN AGONIST OF THE TPO RECEPTOR” (priority 2012, published 2014):
# B1: Flt3-ligand: recombinant cytokine of the culture medium (100 ng/ml) (protein, UniProt P49771 27-235, looked up)
# Fms-related tyrosine kinase 3 …: TQDCSFQHSPISSDFAVKIRELSDYLLQDYPVTVASNLQDEELCGGLWRLVLAQRWMERLKTVAGSKMQGLLERVNTEIHFVTKCAFQPPPSCLRFVQTNISRLLQETSEQLVALKPWITRQNFSRCLELQCQPDSSTLPPPWSPRPLEATAPTAPQPPLLLLLLLPVGLLLLAAAWCLHWQRTRRRTPRPGEQVPPVPSPQDLLLVEH
# Columns and labels:
# DNA-PK = molecular target: T1, DNA-PK (Mus musculus, UniProt P97313); test: γH2AX foci resolution in LSK-CD34− cultures with DNA-PK inhibitor; format: cell-based, mice; conditions: 10 μm NU7441 in TPO-containing cultures of LSK-CD34− cells, IR 2 Gy, 24 h
# T1 construct: LSK and LSK-CD34^− cells were sorted using ARIAS cell sorter; endogenous in cells; host or cells: primary mouse bone-marrow LSK-CD34- cells
# Text: (§1) Mpl^−/− backcrossed on C57BL/6 (CD45.2) background (kindly provided by Dr F. de Sauvage) were described previously (Petit-Cocault et al., 2007). C57BL/6J (CD45.2 and CD45.1) and CB17-Prkdc-scid mice were purchased from Charles River and Harlan laboratories, respectively. Unless otherwise specified, mice of 8-10 weeks of age were used. Lin^− progenitors were isolated from BM and stained as described (Saulnier et al., 2012). LSK and LSK-CD34^− cells were sorted using ARIAS cell sorter (BD Franklin Lakes, N.J., USA) and cultured in StemSpan SFEM (StemCell Technologies) supplemented with recombinant Flt3-Ligand (100 ng/ml), interleukin-3 (IL-3, 10 ng/ml), interleukin-6 (IL-6, 10 ng/ml), Stem cell factor (SCF, 100 ng/ml), and with or without 50 ng/ml TPO (complete medium), all from Peprotech (Rocky Hill, N.J., USA). […] For competitive reconstitution experiments, 3000 LSKs sorted from C57BL/6 CD45.1 mice subjected or not to TBI (2 Gy) and TPO injection (8 μg/kg body weight), were injected in lethally irradiated (10 Gy) C57BL/6 CD45.2 congenic mice, together with 3×10^5 BM CD45.2 competitor cells and analyzed 4 months later.
# (§2) Immunofluorescence was performed as described (Pawlikowska et al., 2010) with cells cytospun on glass slides. […] Pictures were analyzed using ImageJ software.
# LSKs [1] = test: γH2AX foci / DNA break disappearance after IR in vitro in cytokine cultures; format: cell-based, mice; conditions: removal of the cytokine from culture medium
# Text: as §1, §2
# LSKs [2] = test: γH2AX foci in LSKs of mice after TBI or chemotherapeutic drug injection; format: in vivo; conditions: WT mice, vs PBS
# Text: (§3) Mpl^−/− backcrossed on C57BL/6 (CD45.2) background (kindly provided by Dr F. de Sauvage) were described previously (Petit-Cocault et al., 2007). C57BL/6J (CD45.2 and CD45.1) and CB17-Prkdc-scid mice were purchased from Charles River and Harlan laboratories, respectively. Unless otherwise specified, mice of 8-10 weeks of age were used. Lin^− progenitors were isolated from BM and stained as described (Saulnier et al., 2012). LSK and LSK-CD34^− cells were sorted using ARIAS cell sorter (BD Franklin Lakes, N.J., USA) and cultured in StemSpan SFEM (StemCell Technologies) supplemented with recombinant Flt3-Ligand (100 ng/ml), interleukin-3 (IL-3, 10 ng/ml), interleukin-6 (IL-6, 10 ng/ml), Stem cell factor (SCF, 100 ng/ml), and with or without 50 ng/ml TPO (complete medium), all from Peprotech (Rocky Hill, N.J., USA). UT7-Mpl cells (Hamelin et al., 2006) were cultured in α-minimal essential medium (α-MEM) supplemented with 10% FCS and 2 U/ml erythropoietin (EPO, Boehringer Ingelheim). Cell IR in vitro were carried-out in a Biobeam 8000 irradiator (Gamma Service Medical GmbH, Leipzig, Germany). Mice TBI were performed in cesium irradiator IBL 637 (Curie Institute, Paris). Etoposide and doxorubicine were purchased from sigma (Saint-Louis, Mo., USA), drugs were injected intraperitoneally at the indicated doses. For competitive reconstitution experiments, 3000 LSKs sorted from C57BL/6 CD45.1 mice subjected or not to TBI (2 Gy) and TPO injection (8 μg/kg body weight), were injected in lethally irradiated (10 Gy) C57BL/6 CD45.2 congenic mice, together with 3×10^5 BM CD45.2 competitor cells and analyzed 4 months later.
# (§4) Immunofluorescence was performed as described (Pawlikowska et al., 2010) with cells cytospun on glass slides. Slides were visualized with Leica DMI 6000 (Wetzlar, Germany) microscope equipped with a 63×1.6 oil-immersion objective and a coupled device camera MicroMAX (Princeton Instruments Trenton, N.J., USA). Pictures were analyzed using ImageJ software.
# LSKs from SCID mice = test: γH2AX foci in LSKs from SCID mice after TBI; format: in vivo; conditions: SCID mice (DNA-PKcs mutation), TPO 8 μg/kg, TBI 2 Gy, 16 h
# Text: as §1, §2
# LSK and LSK-CD34^− cells [3] = test: LSK and LSK-CD34− proportions, cell cycle status and cell cycle regulators 5 h after TBI; format: in vivo, mice
# Text: as §3
# LSK and LSK-CD34^− cells [4] = test: Persistent DNA damage (γH2AX) in LSK and LSK-CD34− cells 3 months after TBI; format: in vivo, mice; conditions: TPO prior to TBI, analyzed 3 months later
# Text: as §1, §2
# Lin^− progenitors = test: Chromosomal aberrations in metaphases from Lin− progenitors after TBI in vivo; design: species or system mice
# Procedure: Fluorescence was analyzed with a Zeiss Axioplan epifluorescent microscope and ISIS/M-FISH imaging system (MetaSystems).
# LSKs [5] = test: Competitive reconstitution with LSKs from irradiated donor mice; format: in vivo
# Text: as §1, with “USA). UT7-Mpl cells (Hamelin et al., 2006) were cultured in α-minimal essential medium (α-MEM) supplemented with 10% FCS and 2 U/ml erythropoietin (EPO, Boehringer Ingelheim).” for “USA).”
# WT HSPCs = test: Chromosomal rearrangements in HSPCs irradiated in vitro; format: cell-based, mice; conditions: WT HSPCs irradiated in vitro (2 Gy), cultured in the absence of TPO
# Text: as §1
# Chromosomal aberration analysis in metaphase spreads were performed as described previously (Pawlikowska et al., 2010). […] Fluorescence was analyzed with a Zeiss Axioplan epifluorescent microscope and ISIS/M-FISH imaging system (MetaSystems).
# UT7-Mpl cells = test: DNA damage and p-DNA-PK foci in UT7-Mpl cells after IR; format: cell-based, human
# Text: as §3, §4
# Rad51 foci = test: Homologous recombination markers: Rad51 foci and repair of replicative-stress DSBs; format: cell-based
# [6] = in the absence of TPO, compared to TPO-treated cells, IR 2 Gy
molecule,measurement,setting,value
O=c1cc(N2CCOCC2)oc2c(-c3cccc4c3sc3ccccc34)cccc12 [NU7441],TPO-improved γH2AX foci resolution,DNA-PK,completely abolished
"Stem cell factor [SCF, reference compound]",kinetics of IR-induced γH2AX foci or DNA break disappearance,LSKs [1],did not impair
Thrombopoietin [TPO],number of LSKs displaying γH2AX foci,"LSKs [2]; TPO 8 μg/kg injected just before 2 Gy TBI, at 5 h",reduced significantly
same,number of LSKs displaying γH2AX foci,"LSKs [2]; TPO injected just before doxorubicine (3 or 10 mg/kg), at 24 h",reduced significantly
same,number of LSKs displaying γH2AX foci,"LSKs [2]; TPO injected just before etoposide (4 mg/kg), at 24 h",reduced significantly
same,TBI-induced LSK γH2AX foci formation,LSKs from SCID mice,did not decrease
same,proportions of LSK and LSK-CD34− cells recovered from BM,"LSK and LSK-CD34^− cells [3]; 5 h after TBI, PBS vs TPO-treated mice",not significantly different
same,cell cycle status of LSK or LSK-CD34− cells,"LSK and LSK-CD34^− cells [3]; TPO treatment pre-TBI, compared to PBS",did not alter
same,expression of cell cycle regulators p57kip2 and p27Kip1,LSK and LSK-CD34^− cells [3]; after TPO injection and TBI,remained unchanged
same,number and cycle of HSCs and HSPCs,LSK and LSK-CD34^− cells [4],no effect
same,persistent DNA damage (γH2AX foci) in HSCs and HSPCs,LSK and LSK-CD34^− cells [4],almost completely abolished
same,chromosomal aberrations in metaphases from progenitor cells,"Lin^− progenitors; 3 months from TBI, TPO-injected mice",greatly reduced
same,genomic instability (genomic rearrangements) transmitted to progenitor progeny of LSKs,"Lin^− progenitors; 4 months after reconstitution of lethally irradiated recipients, TPO injection before TBI",significantly reduced
same,increase in donor CD45.1 chimerism in the peripheral blood and in BM LSK cells,"LSKs [5]; 4 months after transplantation, TPO vs PBS before TBI",3- to 5 fold
same,"donor chimerism, difference between the TPO and PBS groups",LSKs [5]; 6 weeks posttransplantation,No difference
same,chromosomal rearrangements,WT HSPCs,high numbers
same,TPO action on IR-induced DNA damage in human cell line,UT7-Mpl cells; UT7-Mpl grown with EPO or TPO,could also act
same,number of UT7-Mpl cells showing IR-induced pSer2056- and pT2609-DNA-PK foci,UT7-Mpl cells; [6],significantly decreased
same,p-DNA-PK foci number in positively stained cells,UT7-Mpl cells; [6],greatly reduced
same,total DNA-PK signal,UT7-Mpl cells; upon IR or TPO treatment,did not change
same,repair of DSBs induced by replicative stresses,Rad51 foci; camptotecin and hydroxyurea,could not improve
same,IR-induced Rad51 foci formation,Rad51 foci; functional marker of HR,did not increase
B1,kinetics of IR-induced γH2AX foci or DNA break disappearance,LSKs [1],did not impair
